Each structure is given as a SMILES string.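 Test compounds were applied to cells in 96-well plates for 48 hours at 5 doses. GI50: concentration for 50% inhibition of growth.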 Active and inactive are the calls of the source. No stated cut-off is given here; in the data, active = GI50 up to about 1.1 µM and inactive = higher. Peptide text beside a SMILES is read from it. * marks the point of attachment. X27 = Clc1c(Cl)c(Cl)c(O*)c(Cl)c1Cl; Boc = CC(C)(C)OC(=O)*; OBn = c1ccc(CO*)cc1; Bn = c1ccc(C*)cc1

Assay in all cases: NCI anticancer screen, dose series, 48 h
For assay [1], the system named is 786-0.
In assay [2] the test system is A498.
Assay [3] deals with CAKI-1.
Assay [4] deals with EKVX.
Assay [5] deals with HCT-116.
Assay [6] deals with HT-29.
For assay [7], the system named is IGROV-1.
Assay [8] has as its system MOLT-4.
Assay [9] deals with NCI-H226.
The test system of assay [10] is NCI-H23.
Assay [11] deals with NCI-H522.
Assay [12] concerns OVCAR-4.
Assay [13] relates to OVCAR-8.
Assay [14] has as its system RPMI-8226.
Assay [15] has as its system SK-MEL-28.
For assay [16], the system named is SNB-75.
The subject of assay [17] is TK-10.
The subject of assay [18] is U-251.
Assay [19] has as its system MCF7.

For `[O-][S+]1C(=c2ccc(=C3Sc4ccccc4S3)cc2)Sc2ccccc21` (stereo not drawn), the GI50 in assay [1] was 17 µM (inactive); in assay [2], 15.8 µM (inactive); in [3], > 52.7 µM (inactive); in assay [4] it was 20 µM (inactive); in [5], 25.1 µM (inactive); in assay [6] it was 22.6 µM (inactive). The GI50 in [7] was 38.5 µM (inactive); in [8], > 71.9 µM (inactive); in assay [9], 19.2 µM (inactive); in [10], 16.3 µM (inactive); in assay [11], > 100 µM (inactive); in [12] it was 46.8 µM (inactive). In addition, the GI50 was 17.9 µM (inactive) in assay [13]; > 100 µM (inactive) in assay [14]; 3.03 µM (inactive) in assay [15]; 19.1 µM (inactive) in assay [16]; > 100 µM (inactive) in assay [17]; 14.9 µM (inactive) in assay [18].
For `COc1ccccc1C1C(C(=O)Nc2ccccc2)=C(C)NC(C)=C1C(=O)Nc1ccccc1`, the GI50 in assay [1] is > 100 µM (inactive); in assay [2], 31.7 µM (inactive); in assay [3], > 100 µM (inactive); in assay [4] it was 91.4 µM (inactive); in assay [5] it was 65.8 µM (inactive); in [6], 83.4 µM (inactive). The GI50 was 34.4 µM (inactive) in assay [7]; 7.45 µM (inactive) in assay [8]; 53 µM (inactive) in assay [9]; > 100 µM (inactive) in assay [10]; 48.1 µM (inactive) in assay [11]; 54.8 µM (inactive) in [12]. The GI50 in [13] is > 100 µM (inactive); in [14], 19.5 µM (inactive); in [15], > 100 µM (inactive); in assay [16], > 100 µM (inactive); in [17] it was 89.5 µM (inactive); in [18] it was 90.8 µM (inactive).
As for `O=[N+]([O-])c1ccc(C2N3CCCCC3[C@H]3CCCCN23)cc1` (stereo partly drawn), the GI50 in assay [1], in [2], in assay [3], in [4], in [5] and in assay [6] was > 100 µM (inactive) in each case. The GI50 in assay [7], in assay [8], in [9], in assay [10], in assay [11] and in [12] was > 100 µM (inactive) throughout. Further, the GI50 in [13], in assay [14], in [15], in [16], in assay [17] and in assay [18] was > 100 µM (inactive) in each case.
On to `COc1ccc(C2=Nc3ccccc3SC(C)C2)cc1` (stereo not drawn), for which the GI50 in assay [1] is > 100 µM (inactive); in [2], > 100 µM (inactive); in [3] it was > 100 µM (inactive); in assay [4] it was > 100 µM (inactive); in assay [5], 18 µM (inactive); in assay [6] it was 62.1 µM (inactive). Also, the GI50 in [7] is > 100 µM (inactive); in [8] it was 49.8 µM (inactive); in [9], > 100 µM (inactive); in assay [10] it was > 100 µM (inactive); in assay [11], > 100 µM (inactive); in assay [12], > 100 µM (inactive). Also, the GI50 in assay [13] was > 100 µM (inactive); in [14] it was 17.3 µM (inactive); in assay [15], > 100 µM (inactive); in assay [16], > 100 µM (inactive); in assay [17], > 100 µM (inactive); in assay [18] it was 92.7 µM (inactive).
Regarding `Cc1nc2cccc(F)c2c(=O)n1-c1nnc(C(F)(F)F)s1`, the GI50 in [1], in assay [3], in assay [4], in [5], in [6] and in assay [7] was > 10 µM (inactive) throughout. The GI50 in [19], in assay [8], in assay [9], in assay [10], in assay [11] and in assay [12] was > 10 µM (inactive) each time. For the same molecule, the GI50 in assay [13], in assay [14], in [15], in [16], in assay [17] and in [18] was > 10 µM (inactive) in each case.
Consider `NNC(=O)CNC(=O)CSc1nnc(COc2ccc(Cl)cc2)n1-c1ccccc1`, for which the GI50 in [1], in [2], in assay [3], in [4], in assay [5] and in assay [6] was > 100 µM (inactive) in each case. Moreover, the GI50 in assay [7] is > 100 µM (inactive); in assay [19] it was > 100 µM (inactive); in assay [8] it was > 100 µM (inactive); in assay [9] it was > 100 µM (inactive); in assay [10], > 100 µM (inactive); in assay [11] it was 41.8 µM (inactive). For the same molecule, the GI50 in [12], in assay [13], in assay [15], in [16], in assay [17] and in assay [18] was > 100 µM (inactive) each time.
`C=C(CN(CC)CC)C1(c2ccccc2)CC2(CCCC2)C(=O)O1` (stereo not drawn): the GI50 is > 100 µM (inactive) in assay [1]; > 100 µM (inactive) in [2]; > 100 µM (inactive) in [3]; > 100 µM (inactive) in [4]; 38.3 µM (inactive) in assay [5]; 24.2 µM (inactive) in assay [6]. In addition, the GI50 in assay [7] was > 100 µM (inactive); in assay [19] it was > 100 µM (inactive); in assay [8] it was 53.1 µM (inactive); in [9] it was 48 µM (inactive); in assay [10], 33 µM (inactive); in assay [11] it was 35 µM (inactive). Moreover, the GI50 in [12] is > 100 µM (inactive); in [13], > 100 µM (inactive); in assay [14] it was 76.2 µM (inactive); in [15] it was > 100 µM (inactive); in [16] it was 33 µM (inactive); in assay [17] it was > 100 µM (inactive). In [18], the GI50 is > 100 µM (inactive).
Regarding `COc1ccc(-c2c(C(C)=O)c(-c3ccccc3)n(C3OC(COC(C)=O)C(OC(C)=O)C(OC(C)=O)C3OC(C)=O)c(=S)c2C#N)cc1` (stereo not drawn), the GI50 in assay [1], in assay [2], in assay [3], in assay [4], in assay [5] and in assay [6] was > 100 µM (inactive) in each case. In addition, the GI50 in [7], in assay [19], in assay [8], in assay [9], in assay [10] and in [11] was > 100 µM (inactive) throughout. The GI50 is > 100 µM (inactive) in [12]; > 100 µM (inactive) in [13]; > 100 µM (inactive) in assay [15]; 80.9 µM (inactive) in [16]; > 100 µM (inactive) in [17]; > 100 µM (inactive) in assay [18].
Turning to `O=C(NCc1ccccc1)C1C(=O)C(=O)N(Cc2ccccc2)C1=O` (stereo not drawn), the GI50 was > 100 µM (inactive) in assay [1]; > 100 µM (inactive) in assay [2]; 0.0113 µM (active) in assay [3]; > 100 µM (inactive) in [4]; > 100 µM (inactive) in assay [5]; > 100 µM (inactive) in assay [6]. The GI50 in assay [7], in [8], in assay [9], in assay [10], in assay [11] and in assay [12] was > 100 µM (inactive) in each case. Besides, the GI50 in assay [13], in assay [14], in [15], in assay [16], in [17] and in assay [18] was > 100 µM (inactive) throughout.
Take `CCOc1ccccc1NC(=O)CC1C(=O)Nc2ccccc2[S+]1[O-]` (stereo not drawn): the GI50 in assay [1] was 63.1 µM (inactive); in assay [2], > 100 µM (inactive); in assay [3], > 100 µM (inactive); in [4], 43 µM (inactive); in assay [5] it was > 100 µM (inactive); in assay [6], > 100 µM (inactive). Also, the GI50 in assay [7] was 51.5 µM (inactive); in assay [8], 10.5 µM (inactive); in assay [9] it was 60.5 µM (inactive); in [10], > 100 µM (inactive); in assay [11], 45.4 µM (inactive); in [12], 32.4 µM (inactive). The GI50 in [13] is 43.2 µM (inactive); in assay [14], 11.4 µM (inactive); in [15] it was > 100 µM (inactive); in assay [16] it was > 100 µM (inactive); in assay [17] it was > 100 µM (inactive); in assay [18], 67.9 µM (inactive).
As to `CC(C)CC(NC(=O)C(CCC(=O)OCc1ccccc1)NC(=O)OC(C)(C)C)C(=O)NC(COCc1ccccc1)C(=O)NC(Cc1ccccc1)C(=O)Oc1c(Cl)c(Cl)c(Cl)c(Cl)c1Cl` (stereo not drawn) (Boc-E(OBn)LS(Bn)F-X27; configuration not given here), the GI50 in assay [1] is 35.7 µM (inactive); in [3], 21.2 µM (inactive); in assay [4], 16 µM (inactive); in assay [5], 16.6 µM (inactive); in [6], 35.6 µM (inactive); in [7] it was 20.7 µM (inactive). The GI50 in assay [19] is 22.6 µM (inactive); in assay [8] it was 22.6 µM (inactive); in assay [10], 16.1 µM (inactive); in assay [11] it was 21.9 µM (inactive); in [12], 35.6 µM (inactive); in assay [13], 27 µM (inactive). Further, the GI50 in assay [14] is 20.5 µM (inactive); in assay [15], 19.2 µM (inactive); in [16], 40.2 µM (inactive); in [17], 30.3 µM (inactive); in assay [18], 18.5 µM (inactive).

The values are drawn from ChEMBL document CHEMBL1201862, “PubChem BioAssay data set” (2004).
